Measurements from a melting point compilation (Tetko et al.; mined from patent text by program, amines drawn as free bases though some values may be those of a salt).

melting point	SMILES
225 to 226 °C	O=C1Cc2ccc(N3C(=O)C4=C(CCCC4)C3=O)cc2N1
151 to 153 °C	CCOC(=O)C(=O)Nc1cccc(OCc2ccccc2)c1C(N)=O
94 to 95 °C	CC(C)n1c(C=O)c(-c2ccc(F)cc2)c(-c2ccc(F)cc2)c1C(=O)OCc1ccccc1
155 to 158 °C	COc1ccc(-c2nc3n(c2-c2ccc(OC)cc2)CCS3)cc1
130 to 131 °C	O=C(CSCc1c[nH]c2ccccc12)N1CC=C(c2cccc(F)c2)CC1
187 to 192 °C	COc1cc2c(c(Cl)c1Cl)C(=O)C(c1ccccc1)C2 (centres undefined)
209 to 210 °C	O=CNn1cnc2cc(C(F)(F)F)ccc21
262 to 264 °C	COc1cc2c(O)cnnc2cc1OCc1ccccc1
151 to 153 °C	CN(C)C(=O)c1cccc(NC(=O)Oc2ccccc2)c1
230 °C	O=C(CCl)NC1(c2ccccc2Cl)C(=O)Nc2ccc(Cl)cc21 (centres undefined)
152 °C	Cc1nccc2c3ccc(OCC4CCCCC4)cc3n(CC3CCCCC3)c12
74 to 75.5 °C	Clc1ccc(OCc2ccccc2)c(OCc2ccccc2)c1Cl
99 to 102 °C	Cc1oc(-c2ccccc2)nc1CCOc1ccc(CNO)cc1
98 °C	Cc1ccc(-c2cc(Cl)cc3c2NC(CN)CO3)c(C(F)(F)F)c1 (centres undefined)
202 to 204 °C	CN1CCC(c2c[nH]c3ccc(NC(=O)c4cc5ccccc5s4)nc23)CC1
263 °C	Clc1cc(Cl)c2nc[nH]c2n1
244 to 246 °C	Cc1ccc(-c2c(C3CCN(C)CC3)[nH]c(=O)c3ccccc23)cc1
95 to 98 °C	CC(C)(CN(Cc1ccccc1)C(=O)CCC(=O)O)SN=O
160 to 161 °C	O=C(O)c1cc(Cl)cc([N+](=O)[O-])c1NCc1ccccc1Cl
181 to 184 °C	O=C(O)c1ccccc1-c1ccc(C(F)(F)F)c(Cl)c1
163 °C	Cc1c2c(nc3ccccc13)CCN(C(=O)c1ccc(Cl)cc1)CC2
93 to 95 °C	Cc1ccccc1C1CCN(C(=O)CCC(=O)c2ccc3c(c2)CCNCC3)CC1
121 to 122 °C	COC(=C(C#N)C(=O)Nc1ccccc1)c1cccn1C
156 to 157 °C	CN(C)c1nc(N(C)Cc2ccccc2O)nc(N(C)Cc2ccccc2O)n1
175 to 178 °C	CN(C)c1ncc(C(=O)NCc2ccccc2)c(S)n1
100 to 103 °C	COc1cc2cn(C3CCCCC3)nc2cc1OC

melting point	SMILES
157 to 158 °C	NC(=O)c1ccccc1N1CCN(CC[C@H]2OCCc3ccccc32)CC1
95 to 96 °C	CCCn1nc(OCc2ccc3ccccc3n2)cc1CO
70 to 72 °C	C=CN1NCC2CC3=C(C=CC(c4ccc(F)cc4)C3)CC21C (centres undefined)
173 to 174 °C	CCOCc1nc2c(N)nc3cc(-c4ccccc4)cnc3c2n1CC(C)(C)F
176 to 177 °C	O=c1[nH]c(N2CCN(Cc3ccccc3)C(CO)C2)cc2ccccc12 (centres undefined)
150 to 151 °C	COc1ccc2c(c1)C(Cl)CC1C2C(O)CC2(C)C(O)CCC12 (centres undefined)
> 320 °C	O=c1c2c(Cc3cccc([N+](=O)[O-])c3)n[nH]c2c2cccnc2n1-c1ccccc1
112 to 113 °C	Cc1cc(N(C)CC(=O)N2CCN(Cc3ccccc3)CC2)ccc1Oc1ccc(NC(=O)c2ccc(C(F)(F)F)cc2)cn1
152 to 153 °C	O=C(O)C(=O)c1ccc(OCCOc2ccc3ccccc3c2)cc1Cl
129 to 130 °C	Cc1cccc(-n2cc(CC(=O)O)c(-c3ccc(Cl)cc3)n2)c1
224 to 232 °C	Cc1cc(Br)cnc1CCCCNC1=NS(=O)(=O)c2cc(Br)ccc21
132 to 134 °C	COc1ccc(COc2cccc(C(=O)Nc3ccc(C#N)cn3)c2)cc1
165 to 170 °C	CCOc1ccc2c(OC(=O)C(F)(F)F)c3cc4ccccc4cc3c(OC(=O)C(F)(F)F)c2c1
62 to 65 °C	CCCCC1(CCCC)CCc2c(OCc3ccc4ccccc4n3)cccc2C1O (centres undefined)
166 to 168 °C	O=C1COCC2=C1C(c1ccc(F)c(Br)c1)C1=C(COC1=O)N2 (centres undefined)
> 270 °C	NC(=O)c1cc(-n2cnn(Cc3ccc(F)cc3)c2=O)n[nH]1
180 °C	Cc1cc(COc2nn3c(-c4ccccc4)nnc3cc2-c2ccccc2)no1
> 250 °C	Nc1nc2ccccc2c2c1ncn2CC1(O)CCC1
144 to 146 °C	CN(c1ccccc1)c1ncccc1NC(=O)c1ccccc1Br
220 to 222 °C	CCCNC(=O)N(C)Cc1cccc2c1CN(C1CCC(=O)NC1=O)C2=O (centres undefined)
210 to 211 °C	CC1(C)C(=O)N(c2ccnc(N)c2)c2cccnc21
151 to 154 °C	O=[N+]([O-])c1oc2ccc(CN3CCOCC3)cc2c1-c1ccccc1
190 to 193 °C	CCNc1cc(Nc2ccc(OC)cc2)ncn1
157 °C	CCC(CC)(OCc1oc(-c2ccc(Cl)cc2)nc1C)C(=O)O
169 to 172 °C	Cc1cccc(-c2n[nH]cc2-c2ccc(F)c(-c3ccc(C(C)(C)O)cn3)c2)n1
195 to 196 °C	Clc1ccc2c(c1)N=C(NCCc1cccnc1)c1ccccc1N2

Further lines, the molecule ahead of its results:

SMILES	melting point
CCCOCCN(C)c1ccc(-c2ccc3c(c2)C=C(C(=O)Nc2ccc(CN(C)C4CCOCC4)cc2)CCS3(=O)=O)cc1	193 to 194 °C
CCOC(=O)NNC(=O)NCCC(=O)OC	105 to 107 °C
CC[C@H](C)[C@H](OCc1cccc(F)c1F)[C@H]1[C@H]([N+](=O)[O-])[C@H](c2ccccc2)N[C@@H]1C(=O)NCC(=O)O	137 to 138 °C
CC(C)(C)c1cc(CCc2nsc(=O)o2)cc(C(C)(C)C)c1O	82 to 86 °C
CC1(C)CC(OC(=O)CCCCCCCCC(=O)OC2CC(C)(C)N(OC(=O)c3ccccc3)C(C)(C)C2)CC(C)(C)N1OC(=O)c1ccccc1	92 to 100 °C
CCCCOC(=O)c1cc([N+](=O)[O-])c(Cl)c(S(N)(=O)=O)c1	140 to 141 °C
N#CC(=C(Nc1ccc2c(c1)OCO2)NC1CCC1)S(=O)(=O)c1ccc(Cl)cc1	190 °C
CCCn1c(=O)c2c(nc(C=Cc3cc(OC)c(OC)cc3S(=O)(=O)O)n2C)n(CCC)c1=O	192 to 194 °C
N#Cc1ccc(S(=O)(=O)Nc2cccc3c(C#N)c[nH]c23)cc1	250 to 252 °C
Cc1c(C)c2c(c(C)c1NC(=O)CC(C)(C)C)C(c1ccc(C3CCCCC3)cc1)CO2 (centres undefined)	146 to 148 °C
COc1cc(N2CCNCC2)c2ncccc2c1	105 to 107 °C
CCOc1ccc(C2C(C(=O)c3ccc(C(C)C)cc3)=C(O)C(=O)N2c2ccc(C)nn2)nc1 (centres undefined)	198 to 199 °C
CN(C)c1cc2c(C(F)(F)F)cccc2s1	70 to 73 °C
CSC(=S)NCc1cc(=O)c(OC(c2ccccc2)c2ccccc2)cn1OC(c1ccccc1)c1ccccc1	176 to 178 °C
CC(C)(C)OC(=O)C1C(C=CC(=O)O)C1(C)C (centres undefined)	94 °C
Cc1ccc2c(c1)C(C(Cl)(Cl)Cl)OC(C(Cl)(Cl)Cl)O2 (centres undefined)	134 to 135 °C
CCOC=NN=C(c1ccc(Cl)cc1)c1ccc(OS(C)(=O)=O)cc1	104 to 107 °C
Cc1cc2c(c3ccc(=O)[nH]c13)OCC2C=O (centres undefined)	230 to 232 °C
NC1CCOC1c1ncnc2nc[nH]c12 (centres undefined)	128 to 130 °C
CON(Cc1ccc(C)c(F)c1)C(=O)C1=C(O)C(=O)N(C)C1	145 °C
N#Cc1nn(-c2c(Cl)cc(C(F)(F)F)cc2Cl)c(-n2ccnc2)c1S(=O)(=O)C(F)(F)F	214 to 215 °C
CCN1C(=O)C(C)(C)C(=O)N(C)c2cc(CCN(CCn3cc(C)c4oc(C)cc4c3=O)Cc3cnccc3C)ccc21	155 to 156 °C
O=[N+]([O-])c1ccc(OCCCCCOc2ccc([N+](=O)[O-])cc2)cc1	101 to 102 °C
C#CC(C)(C)c1cc(N)no1	98 to 100 °C

SMILES	melting point
N#CC(=NOCCn1cncn1)C(N)=O	137 °C
COc1ccc(C(=O)Nc2cc(NC(=O)c3cccc(N)c3)ccc2C)cc1OC	179 to 180 °C
CC12CCC(O)C(O)C1=CCC1C2CCC2(C)C(O)C(O)CC12 (centres undefined)	238 to 241 °C
CNCc1nc(C(=O)NC)c2n1-c1ccc(Cl)cc1C(c1ccccc1Cl)=NC2	270 to 273 °C
CC(C)(C)OC(=O)NC[C@H]1CC[C@H](CCO)CC1	78 to 80 °C
COc1cc(C=O)ccc1C1OC(CO)C(O)C(O)C1O (centres undefined)	188 to 190 °C
Cc1nccc(O)c1[N+](=O)[O-]	140 °C
CCCCCC(CCCCC)=NN=C1NC(=O)C(CC(=O)O)S1 (centres undefined)	134 to 135 °C
COc1cc(CCCC2OC(=O)NC2=O)cc(OC)c1O (centres undefined)	155 to 156 °C
C=CCC(NC(=O)c1ccc(OC)cc1)C(=O)O (centres undefined)	121 to 124 °C
CC1(C)C(C=C(Cl)Cl)C1C(N)=O (centres undefined)	78 to 81 °C
CC1(C)NC(=O)N(c2ccc(Cl)c(C(F)(F)F)c2)C1=O	152 to 153 °C
O=C(c1ccccc1)c1cc([N+](=O)[O-])ccc1-n1nc(CO)cc1CO	145 to 147 °C
O=S(=O)(NCC1CCN(C[C@H]2COc3ccc(Cl)cc3O2)CC1)c1ccc(F)cc1	127 to 129 °C
O=C(O)c1cc(=O)c2cc3c(c(CC(O)CO)c2o1)CCCC3 (centres undefined)	217 to 218 °C
CC1(C)CCC(C)(C)c2cc(-c3cccc(-c4ccc(C(=O)O)cc4)c3O)ccc21	121 °C
C=CCOC(=O)NC(C)(C)c1ccc(-c2nc(Nc3ccc(CCn4ccnc4)cc3)ncc2Cl)cc1F	88 °C
CC(=O)[C@H]1CC[C@H]2[C@@H]3CCC4=C/C(=N/OC(=O)[C@@H](NC(=O)OC(C)(C)C)C(C)C)CC[C@]4(C)[C@H]3CC[C@]12C	147 to 149 °C
NC1=NC(=O)N(C2CCCCC2)CC1Br (centres undefined)	152 to 156 °C
Cc1nnc(-c2ccc3occ(-c4ccc(C(F)(F)F)cc4)c3c2)o1	190 to 191 °C
CN1c2ccc(-c3ccc4ccccc4c3)cc2Sc2cc(-c3ccc4ccccc4c3)ccc21	276 to 281 °C
CC(=O)O[C@H]1C[C@@H](n2cnc3c(Cl)ncnc32)[C@H](O)[C@@H]1O (racemic)	103 to 104 °C
Cn1cncc1C(N)(c1ccc(C#N)cc1)c1ccc2c(c1)c(-c1cccc(Cl)c1)cc(=O)n2C (centres undefined)	245 °C
